Test results taken from PubChem BioAssay (NCI).
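Protocol summary: plate cells (96-well), add compound at 5 concentrations, incubate 48 h, interpolate endpoints linearly. The concentration for 50% growth inhibition is given as GI50. The concentration for full growth arrest is given as TGI.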

Tests used:
Test in all cases: NCI anticancer screen, dose series, 48 h
[1] = test system: 786-0 renal
[2] = test system: A498 renal
[3] = test system: A549 NSCLC
[4] = test system: ACHN renal
[5] = test system: BT-549 breast
[6] = test system: CAKI-1 renal
[7] = test system: CCRF-CEM leukemia
[8] = test system: COLO 205 colon
[9] = test system: DU-145 prostate
[10] = test system: EKVX NSCLC
[11] = test system: HCC-2998 colon
[12] = test system: HCT-116 colon
[13] = test system: HCT-15 colon
[14] = test system: HL-60(TB) leukemia
[15] = test system: HOP-62 NSCLC
[16] = test system: HOP-92 NSCLC
[17] = test system: HS 578T breast
[18] = test system: HT29 colon
[19] = test system: K-562 leukemia
[20] = test system: KM12 colon
[21] = test system: LOX IMVI melanoma
[22] = test system: M14 melanoma
[23] = test system: MALME-3M melanoma
[24] = test system: MCF7 breast
[25] = test system: MDA-MB-231 breast
[26] = test system: MDA-MB-435
[27] = test system: MOLT-4 leukemia
[28] = test system: NCI-H226 lung
[29] = test system: NCI-H460 lung
[30] = test system: NCI-H522 lung
[31] = test system: NCI/ADR-RES ovarian
[32] = test system: OVCAR-3 ovarian
[33] = test system: OVCAR-4 ovarian
[34] = test system: OVCAR-5 ovarian
[35] = test system: OVCAR-8 ovarian
[36] = test system: PC-3 prostate
[37] = test system: RPMI-8226 leukemia
[38] = test system: RXF 393 renal
[39] = test system: SF-268 CNS
[40] = test system: SF-295 CNS
[41] = test system: SF-539 CNS
[42] = test system: SK-MEL-2 melanoma
[43] = test system: SK-MEL-28 melanoma
[44] = test system: SK-MEL-5 melanoma
[45] = test system: SK-OV-3 ovarian
[46] = test system: SN12C renal
[47] = test system: SNB-19 CNS
[48] = test system: SNB-75 CNS
[49] = test system: SR leukemia
[50] = test system: SW-620 colon
[51] = test system: T-47D breast
[52] = test system: TK-10 renal
[53] = test system: U251 CNS
[54] = test system: UACC-257 melanoma
[55] = test system: UACC-62 melanoma
[56] = test system: UO-31 renal

## Cn1cc(-c2cc(N)n3nc(-c4cn(C)c5ccc(F)cc45)cc3n2)c2cc(F)ccc21
[1]
  GI50: 1.5 µM
  TGI: 3 µM
[2]
  GI50: 1.94 µM
  TGI: 6.18 µM
[3]
  GI50: 1.56 µM
  TGI: 3.01 µM
[4]
  GI50: 1.74 µM
  TGI: 3.13 µM
[5]
  GI50: 1.76 µM
  TGI: 3.51 µM
[6]
  GI50: 2.04 µM
  TGI: 4.42 µM
[7]
  GI50: 2.75 µM
  TGI: 7.92 µM
[8]
  GI50: 1.75 µM
  TGI: 3.18 µM
[9]
  GI50: 1.8 µM
  TGI: 3.38 µM
[10]
  GI50: 1.73 µM
  TGI: 3.5 µM
[11]
  GI50: 1.74 µM
  TGI: 3.24 µM
[12]
  GI50: 1.85 µM
  TGI: 3.57 µM
[13]
  GI50: 1.85 µM
  TGI: 3.94 µM
[14]
  GI50: 1.83 µM
  TGI: 5.04 µM
[15]
  GI50: 1.99 µM
  TGI: 4.31 µM
[16]
  GI50: 1.9 µM
  TGI: 3.5 µM
[17]
  GI50: 2.45 µM
  TGI: 5.9 µM
[18]
  GI50: 1.64 µM
  TGI: 3.2 µM
[19]
  GI50: 2.79 µM
  TGI: 10 µM
[20]
  GI50: 1.84 µM
  TGI: 3.56 µM
[21]
  GI50: 2.57 µM
  TGI: 4.22 µM
[22]
  GI50: 1.68 µM
  TGI: 3.35 µM
[23]
  GI50: 1.84 µM
  TGI: 3.57 µM
[24]
  GI50: 1.67 µM
  TGI: 3.19 µM
[25]
  GI50: 2 µM
  TGI: 3.79 µM
[26]
  GI50: 1.73 µM
  TGI: 3.38 µM
[27]
  GI50: 2.31 µM
  TGI: 7.01 µM
[28]
  GI50: 6.5 µM
  TGI: 27.8 µM
[29]
  GI50: 1.9 µM
  TGI: 3.75 µM
[30]
  GI50: 1.62 µM
  TGI: 3.28 µM
[31]
  GI50: 2.06 µM
  TGI: 4.6 µM
[32]
  GI50: 1.74 µM
  TGI: 3.16 µM
[33]
  GI50: 1.9 µM
  TGI: 3.9 µM
[34]
  GI50: 1.93 µM
  TGI: 4.1 µM
[35]
  GI50: 1.82 µM
  TGI: 3.53 µM
[36]
  GI50: 1.89 µM
  TGI: 3.84 µM
[37]
  GI50: 2.64 µM
  TGI: 8.01 µM
[38]
  GI50: 1.83 µM
  TGI: 3.53 µM
[39]
  GI50: 1.89 µM
  TGI: 3.95 µM
[40]
  GI50: 1.94 µM
  TGI: 3.73 µM
[41]
  GI50: 1.9 µM
  TGI: 3.45 µM
[42]
  GI50: 2.11 µM
  TGI: 5.97 µM
[43]
  GI50: 1.79 µM
  TGI: 3.23 µM
[44]
  GI50: 1.71 µM
  TGI: 3.17 µM
[45]
  GI50: 20.9 µM
  TGI: 40.5 µM
[46]
  GI50: 1.9 µM
  TGI: 3.66 µM
[47]
  GI50: 2.01 µM
  TGI: 4.11 µM
[48]
  GI50: 2.29 µM
  TGI: 12.4 µM
[49]
  GI50: 1.97 µM
  TGI: 8.4 µM
[50]
  GI50: 1.78 µM
  TGI: 3.41 µM
[51]
  GI50: 1.75 µM
  TGI: 3.69 µM
[52]
  GI50: 1.62 µM
  TGI: 5.91 µM
[53]
  GI50: 1.68 µM
  TGI: 3.17 µM
[54]
  GI50: 1.78 µM
  TGI: 3.58 µM
[55]
  GI50: 1.71 µM
  TGI: 3.28 µM
[56]
  GI50: 1.52 µM
  TGI: 2.95 µM
